Experimental data taken from patent US5840697A, “Peptide inhibitors of calmodulin” (Torrey Pines Institute for Molecular Studies, priority 1996, dated 1998).
Where two headings read alike, the source gives them in different places. Square brackets hold non-standard residues; d marks the D form. Peptide text beside a SMILES is read from it.

Target: calmodulin (Homo sapiens, UniProt P0DP23)
Assay: calcium-dependent phosphodiesterase assay (calmodulin activity)
Format: biochemical
Description: In the calcium dependent phosphodiesterase assay, calmodulin can be assayed by its ability to stimulate phosphodiesterase activity as determined by a two-step assay procedure illustrated by reactions (1) and (2) below. [drawing 1]
During the first step of the assay cyclic adenosine 3'5'-monophosphate (cAMP) is incubated with calcium-activated phosphodiesterase (Cal-PDE), which hydrolyses the 3'bond producing adenosine 5'-monophosphate (5'-AMP). During the second step, 5'-AMP is quantitatively converted into adenosine and inorganic phosphate (Pi) through the action of a 5-nucleotidase. The reaction is followed by the measurement of the Pi formed by reading the absorbance at 660 nm after reacting with ammonium molybdate. The amount of Pi formed is directly related to the phosphodiesterase activity which depends on the level of activation by calmodulin.
To sample assay tubes were added the following components: assay buffer, 25 ul; CaCl2, 5 ul; 5'-nucleotidase, 7.5 ul (stock solution is 10 units/ml); calmodulin 5 units; calmodulin inhibitor peptides to obtain the desired final concentration of 50 μM. The volume was then made up to 200 ul with water. Control blanks were prepared replacing the peptides with water. The added components were thoroughly mixed and the tubes incubated at 30° C. for 10 min. […] The samples were centrifuged to remove the protein precipitate and the 50 ul of the supernatant was withdrawn for phosphate measurement. […] The absorbance of the solution were read at 660 nm using water as a blank, identified as control "Calmo."
The two controls used in the assay, one without and one with calmodulin, as indicated in FIG. 1 and Table I were as follows,: (1) PDE:
These three controls were used in the calcium-dependent phosphodiesterase assay for reproducibility of the assay.
In addition to the calcium-dependent phosphodiesterase assay data, IC50 values were determined for many of the peptides. The assay carried out for the determination in the IC50 values differed from the above screening assay by the concentration of the peptides being tested.
(3) TFP: trifluoperazine; and (4) Calmidasolium: (1-[bis-(4-chlorophenyl)methyl]-3[-2-(2,4-dichlorophenyl)-2[(2,4-dichlorophenyl)methoxy]-ethyl]-1H-imidazolium chloride. The IC50 values were calculated using sigmoidal curve software (Graphpad, ISI; San Diego, Calif.) using the % inhibition at different mixture concentrations (see protocol for determination of % inhibition).
The (L)-amino acid counterpart for five (5) of the all (D)-amino acid peptides identified from the PS-SCL were synthesized in order to study the stereoselectivity of the inhibition.

[1] = Table I, assayed at 75, 50 and 12.5 μM, average of repeated assays, read-out: Average IC50
[2] = Table II, (L)-amino acid peptides, concentrations 0.2 to 50.0 μM, read-out: IC50

SMILES | IC50 [1] [µM] | further results
Clc1ccc(C(c2ccc(Cl)cc2)n2cc[n+](CC(OCc3ccc(Cl)cc3Cl)c3ccc(Cl)cc3Cl)c2)cc1 (stereo not drawn) [Calmidazolium, (1-[bis-(4-chlorophenyl)methyl]-3[-2-(2,4-dichlorophenyl)-2[(2,4-dichlorophenyl)methoxy]-ethyl]-1H-imidazolium chloride, reference compound] | 9 | –
CC[C@@H](C)[C@@H](NC(=O)[C@@H](Cc1c[nH]c2ccccc12)NC(=O)[C@@H](CC(C)C)NC(C)=O)C(=O)N[C@@H](C(=O)N[C@H](Cc1c[nH]cn1)C(=O)N[C@H](CCCNC(=N)N)C(N)=O)[C@H](C)CC [Ac-(D)Leu-(D)Trp-(D)Ile-(D)Ile-(D)His-(D)Arg-NH2] (Ac-[dL][dW][dI][dI][dH][dR]-NH2) | 5.1 | –
CC[C@@H](C)[C@@H](NC(=O)[C@@H](CCC(N)=O)NC(=O)[C@@H](CC(C)C)NC(C)=O)C(=O)N[C@H](Cc1c[nH]cn1)C(=O)N[C@H](Cc1c[nH]cn1)C(=O)N[C@H](Cc1c[nH]c2ccccc12)C(N)=O [Ac-(D)Leu-(D)Gln-(D)Ile-(D)His-(D)His-(D)Trp-NH2] (Ac-[dL][dQ][dI][dH][dH][dW]-NH2) | 27 | –
CC[C@@H](C)[C@@H](NC(=O)[C@@H](CCC(N)=O)NC(=O)[C@@H](CC(C)C)NC(C)=O)C(=O)N[C@@H](C(=O)N[C@H](Cc1c[nH]cn1)C(=O)N[C@H](CCCNC(=N)N)C(N)=O)[C@H](C)CC [Ac-(D)Leu-(D)Gln-(D)Ile-(D)Ile-(D)His-(D)Arg-NH2] (Ac-[dL][dQ][dI][dI][dH][dR]-NH2) | 35 | –
CC[C@@H](C)[C@@H](NC(=O)[C@@H](CCCNC(=N)N)NC(=O)[C@@H](Cc1c[nH]c2ccccc12)NC(=O)[C@@H](CC(C)C)NC(C)=O)C(=O)N[C@H](Cc1c[nH]cn1)C(=O)N[C@H](CCCNC(=N)N)C(N)=O [Ac-(D)Leu-(D)Trp-(D)Arg-(D)Ile-(D)His-(D)Arg-NH2] (Ac-[dL][dW][dR][dI][dH][dR]-NH2) | 7.5 | –
CC[C@@H](C)[C@@H](NC(=O)[C@@H](CCCNC(=N)N)NC(=O)[C@@H](CCC(N)=O)NC(=O)[C@@H](CC(C)C)NC(C)=O)C(=O)N[C@H](CC(C)C)C(=O)N[C@H](Cc1c[nH]c2ccccc12)C(N)=O [Ac-(D)Leu-(D)Gln-(D)Arg-(D)Ile-(D)Leu-(D)Trp-NH2] (Ac-[dL][dQ][dR][dI][dL][dW]-NH2) | 24 | –
CC[C@H](C)[C@H](NC(=O)[C@H](CCC(N)=O)NC(=O)[C@H](CC(C)C)NC(C)=O)C(=O)N[C@@H](Cc1c[nH]cn1)C(=O)N[C@@H](CC(C)C)C(=O)N[C@@H](CCCNC(=N)N)C(N)=O [Ac-Leu-Gln-Ile-His-Leu-Arg-NH2] (Ac-LQIHLR-NH2) | – | IC50 [2]: 87 µM
CC[C@@H](C)[C@@H](NC(=O)[C@@H](Cc1c[nH]c2ccccc12)NC(=O)[C@@H](CC(C)C)NC(C)=O)C(=O)N[C@H](Cc1c[nH]cn1)C(=O)N[C@H](Cc1c[nH]cn1)C(=O)N[C@H](CCCNC(=N)N)C(N)=O [Ac-(D)Leu-(D)Trp-(D)Ile-(D)His-(D)His-(D)Arg-NH2] (Ac-[dL][dW][dI][dH][dH][dR]-NH2) | 20 | inhibition at 50 µM (50 μM peptide, PDE without calmodulin = 100%, calmodulin without peptide = 0%): 79%
CC(=O)N[C@H](CC(C)C)C(=O)N[C@H](CCC(N)=O)C(=O)N[C@H](CCCNC(=N)N)C(=O)N[C@H](Cc1c[nH]cn1)C(=O)N[C@H](CC(C)C)C(=O)N[C@H](CCCNC(=N)N)C(N)=O [Ac-(D)Leu-(D)Gln-(D)Arg-(D)His-(D)Leu-(D)Arg-NH2] (Ac-[dL][dQ][dR][dH][dL][dR]-NH2) | 25 | –
CC[C@@H](C)[C@@H](NC(=O)[C@@H](CCC(N)=O)NC(=O)[C@@H](CC(C)C)NC(C)=O)C(=O)N[C@H](Cc1c[nH]cn1)C(=O)N[C@H](CC(C)C)C(=O)N[C@H](Cc1c[nH]c2ccccc12)C(N)=O [Ac-(D)Leu-(D)Gln-(D)Ile-(D)His-(D)Leu-(D)Trp-NH2] (Ac-[dL][dQ][dI][dH][dL][dW]-NH2) | 30 | –
CC(=O)N[C@@H](CC(C)C)C(=O)N[C@@H](Cc1c[nH]c2ccccc12)C(=O)N[C@@H](CCCNC(=N)N)C(=O)N[C@@H](Cc1c[nH]cn1)C(=O)N[C@@H](Cc1c[nH]cn1)C(=O)N[C@@H](Cc1c[nH]c2ccccc12)C(N)=O [Ac-Leu-Trp-Arg-His-His-Trp-NH2] (Ac-LWRHHW-NH2) | – | calmodulin inhibitory activity, in words ((L)-amino acid peptides of Table II): especially high activity; IC50 [2]: 1.16 µM
CC[C@@H](C)[C@@H](NC(=O)[C@@H](Cc1c[nH]c2ccccc12)NC(=O)[C@@H](CC(C)C)NC(C)=O)C(=O)N[C@@H](C(=O)N[C@H](Cc1c[nH]cn1)C(=O)N[C@H](Cc1c[nH]c2ccccc12)C(N)=O)[C@H](C)CC [Ac-(D)Leu-(D)Trp-(D)Ile-(D)Ile-(D)His-(D)Trp-NH2] (Ac-[dL][dW][dI][dI][dH][dW]-NH2) | 8.6 | –
CC[C@@H](C)[C@@H](NC(=O)[C@@H](CCC(N)=O)NC(=O)[C@@H](CC(C)C)NC(C)=O)C(=O)N[C@@H](C(=O)N[C@H](CC(C)C)C(=O)N[C@H](CCCNC(=N)N)C(N)=O)[C@H](C)CC [Ac-(D)Leu-(D)Gln-(D)Ile-(D)Ile-(D)Leu-(D)Arg-NH2] (Ac-[dL][dQ][dI][dI][dL][dR]-NH2) | 20 | –
CC(=O)N[C@H](CC(C)C)C(=O)N[C@H](CCC(N)=O)C(=O)N[C@H](CCCNC(=N)N)C(=O)N[C@H](Cc1c[nH]cn1)C(=O)N[C@H](Cc1c[nH]cn1)C(=O)N[C@H](CCCNC(=N)N)C(N)=O [Ac-(D)Leu-(D)Gln-(D)Arg-(D)His-(D)His-(D)Arg-NH2] (Ac-[dL][dQ][dR][dH][dH][dR]-NH2) | 20 | –
CC[C@@H](C)[C@@H](NC(=O)[C@@H](Cc1c[nH]c2ccccc12)NC(=O)[C@@H](CC(C)C)NC(C)=O)C(=O)N[C@@H](C(=O)N[C@H](CC(C)C)C(=O)N[C@H](CCCNC(=N)N)C(N)=O)[C@H](C)CC [Ac-(D)Leu-(D)Trp-(D)Ile-(D)Ile-(D)Leu-(D)Arg-NH2] (Ac-[dL][dW][dI][dI][dL][dR]-NH2) | 7.2 | –
CC(=O)N[C@H](CC(C)C)C(=O)N[C@H](CCC(N)=O)C(=O)N[C@H](CCCNC(=N)N)C(=O)N[C@H](Cc1c[nH]cn1)C(=O)N[C@H](Cc1c[nH]cn1)C(=O)N[C@H](Cc1c[nH]c2ccccc12)C(N)=O [Ac-(D)Leu-(D)Gln-(D)Arg-(D)His-(D)His-(D)Trp-NH2] (Ac-[dL][dQ][dR][dH][dH][dW]-NH2) | 25 | –
CC[C@@H](C)[C@@H](NC(=O)[C@@H](CCCNC(=N)N)NC(=O)[C@@H](CCC(N)=O)NC(=O)[C@@H](CC(C)C)NC(C)=O)C(=O)N[C@H](Cc1c[nH]cn1)C(=O)N[C@H](CCCNC(=N)N)C(N)=O [Ac-(D)Leu-(D)Gln-(D)Arg-(D)Ile-(D)His-(D)Arg-NH2] (Ac-[dL][dQ][dR][dI][dH][dR]-NH2) | 26 | –
CC(=O)N[C@H](CC(C)C)C(=O)N[C@H](Cc1c[nH]c2ccccc12)C(=O)N[C@H](CCCNC(=N)N)C(=O)N[C@H](Cc1c[nH]cn1)C(=O)N[C@H](Cc1c[nH]cn1)C(=O)N[C@H](CCCNC(=N)N)C(N)=O [Ac-(D)Leu-(D)Trp-(D)Arg-(D)His-(D)His-(D)Arg-NH2] (Ac-[dL][dW][dR][dH][dH][dR]-NH2) | 8.1 | –
CC(=O)N[C@H](CC(C)C)C(=O)N[C@H](Cc1c[nH]c2ccccc12)C(=O)N[C@H](CCCNC(=N)N)C(=O)N[C@H](Cc1c[nH]cn1)C(=O)N[C@H](CC(C)C)C(=O)N[C@H](CCCNC(=N)N)C(N)=O [Ac-(D)Leu-(D)Trp-(D)Arg-(D)His-(D)Leu-(D)Arg-NH2] (Ac-[dL][dW][dR][dH][dL][dR]-NH2) | 16 | –
